In patent publication US20250027041A1, “COMPOSITION FOR INDUCING TRANSDIFFERENTIATION AND STEM CELLS TREATED THEREWITH” (YJ CERAPEUTICS INC., priority 2021, published 2025):

Legend:
human UCB-MSCs = experiment: Tuj1 immunochemical assay with CtBP inhibitors; format: cell-based
Protocol: To determine CtBP1-mediated ciNSC5 differentiation by YJ102 in human UCB-MSCs, a CTBP1 mechanism by treatment with NSC95397 or 4-methylthio-2-oxobutanoate (MTOB) was analyzed by immunochemical assay. Specifically, UCB-MSCs were dispensed at 2.1×10^4 cells/well in a 12-well plate containing an 18 mm cover glass (circular) (a DMSO control group was dispensed at 3.5×10^3 cells/well). […] The culture medium was removed, washed with PBS, and fixed with 4% paraformaldehyde at room temperature for 10 minutes. After washed three times with PBS, the cells were permeabilized with PBS-T containing 0.5% Triton X-100 for 10 minutes, washed with PBS-T three times for 10 minutes each, and then blocked with a blocking solution (PBS-T containing 5% BSA and 5% goat serum) for 1 hour. Thereafter, the cells were treated with anti-Tuj1 antibody (Cat. 801201, BioLegend) diluted 1/5000 in a blocking solution and incubated at 4° C. overnight. The next day, the cells were washed 10 times for 10 minutes each with PBS-T, and then treated with anti-mouse IgG-cy3 (Cat. 111-165-003, Jackson ImmunoResearch) diluted 1/2000 in a blocking solution, and incubated for 1 hour in dark conditions. Next, the cells were washed 10 times for 10 minutes each with PBS-T, mounted with a mounting solution containing DAPI, and then observed with a confocal microscope.

CtBP1 [1] = molecular target: T1, CtBP1 (Homo sapiens, UniProt Q13363); experiment: Immunoprecipitation, CtBP1 oligomerization in UCB-MSCs; format: cell-based; design: expressed in transfected cells; host or cells: human UCB-MSC; conditions: MTOB 300 μM
Protocol: To determine the effect of YJ102 on the regulation of oligomerization of C-terminal Binding Proteins (CtBPs) in human UCB-MSCs, immunoprecipitation analysis was performed. Specifically, UCB-MSCs were dispensed at 4×10^5 cells/ml in a 60 mm culture dish, and the next day, FLAG-CtBP1, HA-CtBP1, FLAG-CtBP2, and HA-CtBP1 were transfected into cells using 4 μl jetPRIME. Thereafter, the cells were treated with YJ102 (stock 30 mM in DMSO) and MTOB (stock 300 mM in DMSO) at 20 μM and 300 μM, respectively (Table 1). After 48 hours of transfection, proteins were extracted in the same manner as in Example 1-1. Protein G agarose slurry was washed with PBS and blocked with 1 ml of 1% BSA, washed with PBS, and added with 1 μg of anti-HA antibody diluted with 1.5 ml of PBS and incubated at 4° C. for 2 hours. Thereafter, the cells were centrifuged at 3,000×g for 2 minutes to remove the supernatant, washed with an IP150 buffer two times, added with 1 μg of the protein extracted above, and incubated at 4° C. overnight. After incubation, the cells were centrifuged at 3,000×g for 2 minutes to remove the supernatant, washed with PBS three times, added with 50 μl of 1 mg/ml HA peptide diluted with PBS, and incubated at room temperature for 10 minutes. […]

UCB-MSCs [2] = experiment: Tuj1 immunochemical assay, direct conversion of UCB-MSCs into ciNSC5; format: cell-based, human; conditions: 30 μM, 5 days; for expression of Tuj1: UCB-MSC
Protocol: Immunochemical assay was performed to confirm whether UCB-MSCs were transdifferentiated into ciNSC5, Tuj1-positive neural progenitor cells, by the compounds of the present invention, YJ101, YJ102, and YJ103. Specifically, UCB-MSCs were dispensed at 2.1×10^4 cells/well in a 12-well plate containing an 18 mm cover glass (a DMSO control group was dispensed at 3.5×10^3 cells/well). […] The culture medium was removed, washed with PBS, and then fixed with 4% paraformaldehyde at room temperature for 10 minutes. After washed three times with PBS, the cells were permeabilized with PBS-T containing 0.5% Triton X-100 for 10 minutes, washed with PBS-T three times for 10 minutes each, and then blocked with a blocking solution (PBS-T containing 5% BSA and 5% goat serum) for 1 hour. Thereafter, the cells were treated with anti-Tuj1 antibody (Cat. 801201, BioLegend) diluted 1/5000 in a blocking solution and incubated at 4° C. overnight. The next day, the cells were washed 10 times for 10 minutes each with PBS-T, and then treated with anti-mouse IgG-FITC diluted 1/500 in a blocking solution, and incubated for 1 hour in dark conditions. Next, the cells were washed 10 times for 10 minutes each with PBS-T, mounted with a mounting solution containing DAPI, and then observed with a confocal microscope.

AD-MSC = experiment: Tuj1 immunochemical assay, AD-MSC; format: cell-based, human; conditions: 10, 20 or 30 μM, 5 days
Protocol: (§1) To determine whether transdifferentiation into ciNSC5, neural progenitor cells, occurred similarly even in MSCs of different origins when human UCB-MSCs were treated with YJ101, YJ102, or YJ103 for 5 days, the expression of neuronal markers in differentiated ciNSC5 was confirmed by immunochemical assay using MSCs from human adipose-derived mesenchymal stem cells (AD-MSCs), human bone marrow-derived mesenchymal stem cells ([…]) and human umbilical cord blood-derived mesenchymal stem cells (UCB-MSCs; Promo Cells). Specifically, AD-MSC (StemPro™ Human Adipose-Derived Stem Cell, Gibco, Passage #6) was incubated in a MesenPRO RS™ medium, BM-MSC (ATCC, Passage #6) was incubated in a Mesenchymal Stem Cell Basal Medium for Adipose, Umbilical and Bone Marrow-derived MSC (Cat. PCS-500-030, ATCC) medium, and UCB-MSC (Promo Cell, Passage #6) was incubated in a CellCor™ CD MSC (Cat. YSP001, Xell Therapeutics) medium, and then dispensed at 2.1×10^4 cells/well in a 12-well plate with an 18 mm cover glass (circular) (DMSO control group was dispensed at 3.5×10^3 cells/well). […] The culture medium was removed, washed with PBS, and then fixed with 4% paraformaldehyde at room temperature for 10 minutes. After washed three times with PBS, the cells were permeabilized with PBS-T containing 0.5% Triton X-100 for 10 minutes, washed with PBS-T three times for 10 minutes each, and then blocked with a blocking solution (PBS-T containing 5% BSA and 5% goat serum) for 1 hour. Thereafter, the cells were treated with anti-Tuj1 antibody (Cat. 801201, BioLegend) diluted 1/5000 in a blocking solution and incubated at 4° C. overnight. The next day, the cells were washed 10 times for 10 minutes each with PBS-T, and then treated with anti-mouse IgG-cy3 diluted 1/2000 in a blocking solution, and incubated for 1 hour in dark conditions. Next, the cells were washed 10 times for 10 minutes each with PBS-T, mounted with a mounting solution containing DAPI, and then observed with a confocal microscope.

BM-MSC = experiment: Tuj1 immunochemical assay, BM-MSC; format: cell-based, human; conditions: 10, 20 or 30 μM, 5 days
Protocol: as §1

UCB-MSC (Promo Cell) = experiment: Tuj1 immunochemical assay, UCB-MSC (Promo Cell); format: cell-based, human; conditions: 10, 20 or 30 μM, 5 days
Protocol: as §1

UCB-MSCs [3] = experiment: CellTiter-Glo proliferation assay; format: cell-based, human; conditions: 10, 20, or 40 μM; 3 or 5 days
Protocol: Thereafter, 100 μl of a CellTiter-Glo reagent prepared by mixing a CellTiter-Glo Buffer with a CellTiter-Glo substrate was added to each well of a 96-well plate, covered with a plate cover, and incubated at room temperature for 30 minutes.

CtBP1 [4] = molecular target: T1, CtBP1; experiment: DARTS assay, CtBP1; format: binding; design: expressed in transfected cells; host or cells: human UCB-MSC (Kang Stem Cell), lysate; conditions: for overexpressed CtBP1 (flag-CtBP1) protection from degradation by pronase (DARTS): FLAG-CtBP1 transfected UCB-MSC lysate, YJ101 (20 or M), YJ102 (20 or 30 μM), YJ103 (20 or 40 μM); for binding to CtBP1: human UCB-MSC
Protocol: To identify proteins binding to compounds of the present invention, YJ101 (Chemical Formula 1), YJ102 (Chemical Formula 2), and YJ103 (Chemical Formula 3), in human umbilical cord blood-derived mesenchymal stem cells (UCB-MSCs), DART assay was performed. Specifically, UCB-MSCs (Kang Stem Cell, Passage #6) were dispensed into a 100 mm culture dish and incubated in a KSB-3 medium (Cat. K3901, Kang Stem Cell) containing 10% FBS (Cat. 16000044), and then collected and washed with PBS. Thereafter, the cells were added with an IP50 lysis buffer [50 mM Tris-HCl (pH 7.4), 150 mM NaCl, 2 mM MgCl2, and 0.1% NP40], sonicated, and centrifuged at 13,000×g for 10 minutes at 4° C. to obtain the supernatant. The supernatant was added with 1/10 volume of 10×TNC buffer [500 mM Tris-HCl (pH 8.0), 500 mM NaCl, and 100 mM CaCl2)], and protein concentration was measured using a Bradford method. Thereafter, 9 μl of a cell lysate and 1 μl of YJ101 (20 or M), YJ102 (20 or 30 μM), or YJ103 (20 or 40 μM) were mixed in a microcentrifuge tube and incubated at room temperature for 1 hour. A control group was treated with 1 μl of DMSO. After incubation, 1 μl (1 mg/ml) of Pronase (Cat. 10 165 921 001, Roche) diluted to 1 mg/ml using a 1×TNC buffer was added to the microcentrifuge tube and incubated at 37° C. for 15 minutes. After incubation, ⅕ volume of a 5×SDS-PAGE loading buffer was added, heated at 100° C. for 5 minutes, and then SDS-PAGE and Coomassie blue staining were performed. In addition, UCB-MSCs were dispensed at 4×10^5 cells/ml in a 60 mm culture dish, and after 24 hours, 4 μg of FLAG-CtBP1 or FLAG-CtBP2 DNA was transfected using 4 μl of jetPRIME. After 48 hours, the cells were collected, and proteins were extracted and quantified using the same method as above. DARTS assay was performed with the cell lysate of CtBP1 and Y102 labeled with FLAG, and Western blot assay was performed with a flag antibody (Cat. F3165, Sigma).

| YJ102-induced oligomerization of CtBP1 (CtBP1 [1]) | overexpressed CtBP1 (flag-CtBP1) protection from degradation by pronase (DARTS) (CtBP1 [4]) | binding to CtBP1 (CtBP1 [4]) | Compound | expression of Tuj1 in YJ102-treated ciNSC5 (human UCB-MSCs; 300 μM MTOB with 30 μM YJ102, 5 days) | expression of Tuj1 in YJ102-treated ciNSC5 (human UCB-MSCs; 10 μM NSC95397 with 30 μM YJ102, 5 days) | direct conversion from UCB-MSCs to ciNSC5 (UCB-MSCs [2]) | expression of Tuj1 (UCB-MSCs [2]) | expression of Tuj1 (AD-MSC) | expression of Tuj1 (BM-MSC) | expression of Tuj1 (UCB-MSC (Promo Cell)) | cell proliferation (CellTiter-Glo) (UCB-MSCs [3]) |
| --- | --- | --- | --- | --- | --- | --- | --- | --- | --- | --- | --- |
| inhibited |  |  | CSCCC(=O)C(=O)O [MTOB, 4-methylthio-2-oxobutanoate, reference compound] | reduced |  |  |  |  |  |  |  |
|  |  |  | O=C1C(SCCO)=C(SCCO)C(=O)c2ccccc21 [NSC95397] |  | reduced |  |  |  |  |  |  |
|  | protected | bound to CtBP1 | CCc1ccc(N(C(=O)COC(C)=O)c2nc3cc(Cl)ccc3o2)cc1 [YJ101] |  |  | induced direct conversion | increased | increased | increased | increased | reduced cell proliferation in a concentration-dependent manner |
|  | protected | bound to CtBP1 | CCc1ccc(N(C(=O)CCC(=O)OC)c2nc3cc(Cl)ccc3o2)cc1 [YJ103] |  |  | induced direct conversion | increased | increased | increased | increased | reduced cell proliferation in a concentration-dependent manner |
